Experimental data taken from BindingDB's records for doi:10.1021/jm8008629 (Wayne State University, 2008).
pKi: −log10 of the molar value.

Experiments:
D(2) dopamine receptor = D(2) dopamine receptor (Rattus norvegicus, UniProt P61169); assay: Displacement of [3H]Spiperone from rat dopamine D2L receptor expressed in HEK293 cells
D(3) dopamine receptor = D(3) dopamine receptor (Rattus norvegicus, UniProt P19020); assay: Displacement of [3H]Spiperone from rat dopamine D3 receptor expressed in HEK293 cells
Chain of D(3) dopamine receptor (P19020 whole entry): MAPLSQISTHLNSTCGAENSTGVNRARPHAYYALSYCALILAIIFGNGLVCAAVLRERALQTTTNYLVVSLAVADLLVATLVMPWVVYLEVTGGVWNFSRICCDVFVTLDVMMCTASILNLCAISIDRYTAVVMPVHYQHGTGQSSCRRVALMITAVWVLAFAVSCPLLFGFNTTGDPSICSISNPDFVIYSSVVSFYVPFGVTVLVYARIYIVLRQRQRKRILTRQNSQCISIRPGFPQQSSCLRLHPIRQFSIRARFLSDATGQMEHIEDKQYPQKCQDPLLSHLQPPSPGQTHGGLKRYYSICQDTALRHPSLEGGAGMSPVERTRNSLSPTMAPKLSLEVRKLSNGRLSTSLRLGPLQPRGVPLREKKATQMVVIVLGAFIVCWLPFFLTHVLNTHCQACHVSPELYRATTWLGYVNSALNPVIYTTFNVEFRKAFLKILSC

Chain of D(2) dopamine receptor (P61169 whole entry): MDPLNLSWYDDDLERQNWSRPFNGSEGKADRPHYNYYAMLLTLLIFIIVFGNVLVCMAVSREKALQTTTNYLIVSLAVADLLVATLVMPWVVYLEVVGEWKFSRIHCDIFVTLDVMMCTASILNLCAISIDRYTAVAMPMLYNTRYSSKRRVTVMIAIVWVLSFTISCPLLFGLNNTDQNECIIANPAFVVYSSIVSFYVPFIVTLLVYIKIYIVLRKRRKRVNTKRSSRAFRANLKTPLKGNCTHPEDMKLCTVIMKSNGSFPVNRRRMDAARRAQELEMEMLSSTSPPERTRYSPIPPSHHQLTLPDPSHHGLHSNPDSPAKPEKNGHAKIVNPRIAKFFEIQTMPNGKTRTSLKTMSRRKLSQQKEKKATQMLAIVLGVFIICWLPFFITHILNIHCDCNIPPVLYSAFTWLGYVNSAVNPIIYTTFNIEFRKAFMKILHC

pKi (D(2) dopamine receptor): 5.48 | pKi (D(3) dopamine receptor): 6.38
Compound: Oc1ccc2c(c1)C[C@@H]1[C@@H](CCCN1CCN1CCN(c3ccccc3)CC1)C2 (racemic) [(+/-)-cis-1-[2-(4-Phenylpiperazin-1-yl)ethyl]-1,2,3,4,4a,5,10,10a-octahydrobenzo[g]quinolin-8-ol]
